Consider 6 compounds from paper PMC2788676 (Journal of medicinal chemistry, 2009).

The term Ki denotes a measure of affinity in units of concentration, obtained from inhibition or displacement. A word on the EC50: it is the concentration that produces a half-maximal response. A low value points to a more potent agent. One may read the Emax as the maximal effect, on the per cent scale that the assay sets.

One assay deals with μ-opioid receptor. Conditions: read-out: μ-opioid receptor Ki; cited from earlier work.
The target of another assay is human μ-opiate receptor (Homo sapiens, UniProt P35372). As to the kind of experiment: [35S]GTP-γ-S functional binding assay, CHO hMOR cells. Type of assay: biochemical. Conditions: for Emax: read-out: μ-Agonism Emax %; for efficacy as μ-agonist (in words): [35S]GTP-γ-S functional assay. In general terms: Binding of GTPγS marks nucleotide exchange on a G protein.
human μ-opiate receptor, sequence (P35372 whole entry): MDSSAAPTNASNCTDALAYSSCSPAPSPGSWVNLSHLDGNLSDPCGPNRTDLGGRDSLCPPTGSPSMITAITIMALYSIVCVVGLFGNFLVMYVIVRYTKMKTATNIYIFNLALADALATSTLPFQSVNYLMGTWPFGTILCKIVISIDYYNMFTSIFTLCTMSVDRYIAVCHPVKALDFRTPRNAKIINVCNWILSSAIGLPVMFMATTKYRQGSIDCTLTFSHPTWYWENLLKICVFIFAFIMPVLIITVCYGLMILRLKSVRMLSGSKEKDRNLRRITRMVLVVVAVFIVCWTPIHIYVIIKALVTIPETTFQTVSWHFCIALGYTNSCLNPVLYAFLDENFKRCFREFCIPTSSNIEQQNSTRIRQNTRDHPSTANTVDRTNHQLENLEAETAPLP
The next assay has as its target δ-opiate receptor (Homo sapiens, UniProt P41143). As to the kind of experiment: [3H]DADLE opioid receptor binding, transfected CHO cells. Conditions: relative to μ Ki.
The next assay concerns the target κ-opiate receptor (Homo sapiens, UniProt P41145). As to the kind of experiment: [3H]U69,593 opioid receptor binding, transfected CHO cells. Conditions: relative to μ Ki.

δ-opiate receptor, sequence (P41143 whole entry): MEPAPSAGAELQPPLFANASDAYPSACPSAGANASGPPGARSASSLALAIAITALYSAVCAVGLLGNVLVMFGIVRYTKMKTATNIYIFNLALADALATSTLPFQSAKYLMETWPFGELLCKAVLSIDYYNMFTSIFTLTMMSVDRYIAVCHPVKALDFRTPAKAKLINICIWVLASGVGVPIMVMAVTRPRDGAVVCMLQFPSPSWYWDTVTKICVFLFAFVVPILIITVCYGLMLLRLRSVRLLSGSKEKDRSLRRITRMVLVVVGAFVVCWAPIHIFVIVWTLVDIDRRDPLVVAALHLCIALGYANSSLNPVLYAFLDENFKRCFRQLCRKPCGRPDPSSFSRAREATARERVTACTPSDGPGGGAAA
κ-opiate receptor, sequence (P41145 whole entry): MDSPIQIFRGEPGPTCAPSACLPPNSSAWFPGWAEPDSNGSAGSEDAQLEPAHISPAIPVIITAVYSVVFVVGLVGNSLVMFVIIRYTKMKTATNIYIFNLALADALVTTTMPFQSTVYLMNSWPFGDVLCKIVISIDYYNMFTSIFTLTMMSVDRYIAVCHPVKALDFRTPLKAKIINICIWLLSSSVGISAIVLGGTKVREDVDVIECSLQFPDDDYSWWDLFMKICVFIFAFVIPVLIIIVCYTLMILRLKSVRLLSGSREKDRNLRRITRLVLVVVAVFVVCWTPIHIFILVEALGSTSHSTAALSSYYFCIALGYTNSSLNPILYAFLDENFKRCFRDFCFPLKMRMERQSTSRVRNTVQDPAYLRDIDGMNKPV

With `Oc1ccc2c(c1)[C@]13CCC[C@H](C1)NC[C@@H]3O2` (single isomer, unassigned) [para-d isomer, (3R*,6aS*11aR*)-1,3,4,5,6,11a-hexahydro-2H-3,6a-methanobenzofuro[2,3-c]azocin-8-ol], the Ki on μ-opioid receptor is 1220 nM.

As to `CC[C@@]12CCNC[C@@H]1Oc1ccc(O)cc12` [Compound 20, 4aS,9aR-(−)-cis-4a-Ethyl-1,2,3,4,4a,9a-hexahydrobenzofuro[2,3-c]pyridin-6-ol], at human μ-opiate receptor, the EC50 is 150 ± 25 nM, the Kb turned out to be 95 nM and the Emax was found to be 97 ± 4%.

Regarding `CC[C@@]12CCN(C)C[C@@H]1Oc1ccc(O)cc12` [Compound 21, 4aS,9aR-(−)-cis-4a-Ethyl-2-methyl-1,2,3,4,4a,9a-hexahydrobenzofuro[2,3-c]pyridin-6-ol], on human μ-opiate receptor, the EC50 came to 241 ± 47 nM, the “efficacy as μ-agonist (in words)” value is reported as “little efficacy” and the Emax turned out to be 45 ± 2%.

For `CC[C@@]12CCN(CCc3ccccc3)C[C@@H]1Oc1ccc(O)cc12` [Compound 22, 4aS,9aR-(−)-cis-4a-Ethyl-2-(2-phenylethyl)-1,2,3,4,4a,9a-hexahydrobenzofuro[2,3-c]pyridin-6-ol], on human μ-opiate receptor, the EC50 is 24 ± 6 nM, the “efficacy as μ-agonist (in words)” value is on record as “potent agonist” and the Emax stood at 84 ± 4%. Further, on δ-opiate receptor, the “fold less affinity at the δ-receptor than at the μ-receptor” value is on record as “more than 100 fold”. The “fold less affinity at the κ-receptor than at the μ-receptor” value at κ-opiate receptor was “more than 100 fold”.

For `CC[C@@]12CCN(C[C@@H](O)c3ccccc3)C[C@@H]1Oc1ccc(O)cc12` [Compound 23, 4aS,9aR,2′S-(−)-cis-2-(2′-Hydroxy-2-phenylethyl)-4a-ethyl-1,2,3,4,4a,9a-hexahydrobenzofuro[2,3-c]pyridin-6-ol], on human μ-opiate receptor, the EC50 stood at 560 ± 60 nM and the Emax was 100 ± 3%.

`CC[C@@]12CCN(C[C@H](O)c3ccccc3)C[C@@H]1Oc1ccc(O)cc12` [Compound 24, 4aS,9aR,2′R-(−)-cis-2-(2′-Hydroxy-2-phenylethyl)-4a-ethyl-1,2,3,4,4a,9a-hexahydrobenzofuro[2,3-c]pyridin-6-ol]: at human μ-opiate receptor, a half-maximal effect (EC50) was put at 480 ± 90 nM and the Emax is 36 ± 2%.
